The target of this assay is T1, human PAR-2 (hPAR-2) receptor expressed in HEK-293 T cells in an endogenous manner (Homo sapiens, UniProt P55085).
T1 construct: human PAR-2 (hPAR-2) receptor expressed in HEK-293 T cells in an endogenous manner; endogenous in cells; host or cells: HEK-293 T cells
T1 sequence (P55085 26-397): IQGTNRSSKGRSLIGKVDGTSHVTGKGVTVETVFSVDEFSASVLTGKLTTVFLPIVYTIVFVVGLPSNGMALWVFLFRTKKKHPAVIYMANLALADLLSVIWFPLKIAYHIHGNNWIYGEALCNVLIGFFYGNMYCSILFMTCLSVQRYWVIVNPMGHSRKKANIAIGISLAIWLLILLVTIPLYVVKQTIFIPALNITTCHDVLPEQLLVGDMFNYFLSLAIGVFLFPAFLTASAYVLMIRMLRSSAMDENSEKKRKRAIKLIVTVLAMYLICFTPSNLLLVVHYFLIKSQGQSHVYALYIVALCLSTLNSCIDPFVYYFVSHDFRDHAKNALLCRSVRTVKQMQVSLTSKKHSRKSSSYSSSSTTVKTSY
The experiment in a line: In vitro human PAR-2 functional antagonist activity using calcium assays (Fluo4AM, FLIPR Tetra). It counts as cell-based. As to conditions: HEK-293 T cells stimulated by an EC80 of the 2-Furoyl-LIGRLO-NH2 peptide after 10 min incubation with compound; 20 concentrations, duplicate, two independent experiments. The method, boiled down: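 Antagonist activity was taken as the decrease in the calcium response to an EC80 of 2-Furoyl-LIGRLO-NH2, measured over 5 min. The agonist was added after a 10 min compound-alone step on the same plate. The HEK-293 T cells express PAR-2 endogenously and were loaded with 1 μM Fluo4AM. Signals were referenced to buffer and EC80-alone controls.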
For `CC(C)(C#N)c1ccnc(N2CCN(C(=O)c3ccc4c(-c5ccc(Cl)c(F)c5)cn(C(C)(C)C)c4n3)C(C)(C)C2)c1` [Example 176, 2-(2-(4-(1-(tert-butyl)-3-(4-chloro-3-fluorophenyl)-1H-pyrrolo[2,3-b]pyridine-6-carbonyl)-3,3-dimethylpiperazin-1-yl)pyridin-4-yl)-2-methylpropanenitrile], the IC50 is less than 0.02 µM. Under `CC(C)Cc1nn(-c2ccc(Cl)cc2Cl)c2ccc(C(=O)N3CCNC(=O)C3(C)C)nc12` [Example 73, 4-(1-(2,4-dichlorophenyl)-3-isobutyl-1H-pyrazolo[4,3-b]pyridine-5-carbonyl)-3,3-dimethylpiperazin-2-one] stands 0.02 to 10 µM; under `CC1(C)C(=O)NCCN1C(=O)c1ccc2c(-c3ccc(Cl)c(F)c3)cn(CCN3CCCC3=O)c2n1` [Example 41, 4-(3-(4-chloro-3-fluorophenyl)-1-(2-(2-oxopyrrolidin-1-yl)ethyl)-1H-pyrrolo[2,3-b]pyridine-6-carbonyl)-3,3-dimethylpiperazin-2-one], 0.02 to 10 µM; under `CC(C)Cc1nn(-c2cccc(Cl)c2)c2ccc(C(=O)N3CCNC(=O)C3(C)C)nc12` [Example 67, 4-(1-(3-chlorophenyl)-3-isobutyl-1H-pyrazolo[4,3-b]pyridine-5-carbonyl)-3,3-dimethylpiperazin-2-one], 0.02 to 10 µM. Take `COC(=O)c1c(C)cc(N2CCN(C(=O)c3ccc4c(n3)c(C(C)(C)C)nn4-c3ccc(Cl)c(F)c3)C(C)(C)C2)nc1C` [Example 58, methyl 6-(4-(3-(tert-butyl)-1-(4-chloro-3-fluorophenyl)-1H-pyrazolo[4,3-b]pyridine-5-carbonyl)-3,3-dimethylpiperazin-1-yl)-2,4-dimethylnicotinate]: the IC50 is greater than 10 µM.

With `Cc1cccc(-c2cn(CC(C)C)c3nc(C(=O)N4CCNC(=O)C4(C)C)ccc23)c1` [Example 118, 4-(1-isobutyl-3-(m-tolyl)-1H-pyrrolo[2,3-b]pyridine-6-carbonyl)-3,3-dimethylpiperazin-2-one], the IC50 fell in the range of 0.02 to 10 µM. Under `COC[C@H](C)n1cc(-c2ccc(Cl)c(F)c2)c2ccc(C(=O)N3CCN(c4cc(C)c(C(=O)O)c(C)n4)CC3(C)C)nc21` [Example 136, (S)-6-(4-(3-(4-chloro-3-fluorophenyl)-1-(1-methoxypropan-2-yl)-1H-pyrrolo[2,3-b]pyridine-6-carbonyl)-3,3-dimethylpiperazin-1-yl)-2,4-dimethylnicotinic acid] stands less than 0.02 µM; under `COc1ccc(-c2cn(CC(C)C)c3nc(C(=O)N4CCNC(=O)C4(C)C)ccc23)cn1` [Example 105, 4-(1-isobutyl-3-(6-methoxypyridin-3-yl)-1H-pyrrolo[2,3-b]pyridine-6-carbonyl)-3,3-dimethylpiperazin-2-one], 0.02 to 10 µM; under `Cc1cc(N[C@H]2CCN(C(=O)c3ccc4c(-c5ccc(Cl)c(F)c5)cn(C(C)(C)C)c4n3)C2)nc(C)c1C(=O)O` [Example 154, (S)-6-((1-(1-(tert-butyl)-3-(4-chloro-3-fluorophenyl)-1H-pyrrolo[2,3-b]pyridine-6-carbonyl)pyrrolidin-3-yl)amino)-2,4-dimethylnicotinic acid], greater than 10 µM.

Consider `Cn1cc(-c2ccc(Cl)c(F)c2)c2ccc(C(=O)N3CCNC(=O)C3(C)C)nc21` [Example 34, 4-(3-(4-chloro-3-fluorophenyl)-1-methyl-1H-pyrrolo[2,3-b]pyridine-6-carbonyl)-3,3-dimethylpiperazin-2-one], for which the IC50 fell in the range of 0.02 to 10 µM. Regarding `CC(C)Cc1nn(-c2ccccc2Cl)c2ccc(C(=O)N3CCNC(=O)C3(C)C)nc12` [Example 74, 4-(1-(2-chlorophenyl)-3-isobutyl-1H-pyrazolo[4,3-b]pyridine-5-carbonyl)-3,3-dimethylpiperazin-2-one], the IC50 is greater than 10 µM. As for `CC(C)Cc1nn(-c2ccc(Cl)c(F)c2)c2ccc(C(=O)N3CCC4(CC3)NC(=O)NC4=O)nc12` [Example 70, 8-(1-(4-chloro-3-fluorophenyl)-3-isobutyl-1H-pyrazolo[4,3-b]pyridine-5-carbonyl)-1,3,8-triazaspiro[4.5]decane-2,4-dione], the IC50 is greater than 10 µM. Under `CCOC(=O)c1ccc(N2CCN(C(=O)c3ccn4c(-c5ccc(Cl)cc5)nc(CC(C)C)c4c3)C(C)(C)C2)nc1` [Example 218, ethyl 6-(4-(3-(4-chlorophenyl)-1-isobutylimidazo[1,5-a]pyridine-7-carbonyl)-3,3-dimethylpiperazin-1-yl)nicotinate] stands greater than 10 µM; under `CC(C)Cc1nn(Cc2ccc(Cl)c(F)c2)c2ccc(C(=O)N3CCNC(=O)C3(C)C)nc12` [Example 78, 4-(1-(4-chloro-3-fluorobenzyl)-3-isobutyl-1H-pyrazolo[4,3-b]pyridine-5-carbonyl)-3,3-dimethylpiperazin-2-one], greater than 10 µM. Regarding `Cc1cc(N2CCN(C(=O)c3ccc4c(-c5ccc(Cl)c(F)c5)cn(Cc5ncco5)c4n3)C(C)(C)C2)nc(C)c1C(=O)O` [Example 173], the IC50 fell in the range of 0.02 to 10 µM.

With `Cc1cc(N2CCN(C(=O)c3ccc4c(-c5ccc(F)c(F)c5)cn(CC(C)C)c4n3)C(C)(C)C2)nc(C)c1C(=O)O` [Example 141, 6-(4-(3-(3,4-difluorophenyl)-1-isobutyl-1H-pyrrolo[2,3-b]pyridine-6-carbonyl)-3,3-dimethylpiperazin-1-yl)-2,4-dimethylnicotinic acid], the IC50 is less than 0.02 µM. The result for `CC(C)(C)n1cc(-c2ccc(Cl)c(F)c2)c2ccc(C(=O)N3CCS(=O)(=O)CC3)nc21` [Example 214, (1-(tert-butyl)-3-(4-chloro-3-fluorophenyl)-1H-pyrrolo[2,3-b]pyridin-6-yl)(1,1-dioxidothiomorpholino)methanone] reads 0.02 to 10 µM. Regarding `Cc1cc(N2CCC3(CCN(C(=O)c4ccc5c(-c6ccc(Cl)c(F)c6)cn(C(C)(C)C)c5n4)C3)C2)nc(C)c1C(=O)O` (centres unmarked) [Example 128, 6-(7-(1-(tert-butyl)-3-(4-chloro-3-fluorophenyl)-1H-pyrrolo[2,3-b]pyridine-6-carbonyl)-2,7-diazaspiro[4.4]nonan-2-yl)-2,4-dimethylnicotinic acid], the IC50 is greater than 10 µM. Turning to `CN(C)C(=O)CN1CCN(C(=O)c2ccc3c(-c4ccc(Cl)c(F)c4)cn(C(C)(C)C)c3n2)C(C)(C)C1=O` [Example 7, 2-(4-(1-(tert-butyl)-3-(4-chloro-3-fluorophenyl)-1H-pyrrolo[2,3-b]pyridine-6-carbonyl)-3,3-dimethyl-2-oxopiperazin-1-yl)-N,N-dimethylacetamide], the IC50 is less than 0.02 µM. With `CC(C)Cn1cc(-c2ccc(Cl)c(F)c2)c2ccc(C(=O)N3CCNC(=O)C3(C)C)nc21` [Example 29, 4-(3-(4-chloro-3-fluorophenyl)-1-isobutyl-1H-pyrrolo[2,3-b]pyridine-6-carbonyl)-3,3-dimethylpiperazin-2-one], the 50% inhibitory concentration (IC50) is less than 0.02 µM. The result for `CC1(C)CCCN1C(=O)c1ccc2c(-c3ccc(Cl)c(F)c3)cn(C(C)(C)C)c2n1` [Example 16, (1-(tert-butyl)-3-(4-chloro-3-fluorophenyl)-1H-pyrrolo[2,3-b]pyridin-6-yl)(2,2-dimethylpyrrolidin-1-yl)methanone] reads 0.02 to 10 µM. The result for `Cc1cc(N2CCN(C(=O)c3ccc4c(-c5ccc(Cl)c(F)c5)cn(CC(C)(C)O)c4n3)C(C)(C)C2)nc(C)c1C(=O)O` [Example 180, 6-(4-(3-(4-chloro-3-fluorophenyl)-1-(2-hydroxy-2-methylpropyl)-1H-pyrrolo[2,3-b]pyridine-6-carbonyl)-3,3-dimethylpiperazin-1-yl)-2,4-dimethylnicotinic acid] reads 0.02 to 10 µM; that for `CC(C)(C)n1cc(-c2ccc(Cl)c(F)c2)c2ccc(C(=O)N3C[C@@H]4[C@@H](CC(=O)O)[C@@H]4C3)nc21` [Example 124, 2-((1R,5S,6s)-3-(1-(tert-butyl)-3-(4-chloro-3-fluorophenyl)-1H-pyrrolo[2,3-b]pyridine-6-carbonyl)-3-azabicyclo[3.1.0]hexan-6-yl)acetic acid], less than 0.02 µM; that for `Cc1cc(N2CCN(C(=O)c3ccc4c(-c5ccc(Cl)c(F)c5)cn(C[C@@H]5CCOC5)c4n3)C(C)(C)C2)nc(C)c1C(=O)O` [Example 182, (S)-6-(4-(3-(4-chloro-3-fluorophenyl)-1-((tetrahydrofuran-3-yl)methyl)-1H-pyrrolo[2,3-b]pyridine-6-carbonyl)-3,3-dimethylpiperazin-1-yl)-2,4-dimethylnicotinic acid], 0.02 to 10 µM. The result for `Cc1nc(Cn2cc(-c3ccc(Cl)c(F)c3)c3ccc(C(=O)N4CCN(c5cc(C)c(C(=O)O)c(C)n5)CC4(C)C)nc32)c(C)o1` [Example 159, 6-(4-(3-(4-chloro-3-fluorophenyl)-1-((2,5-dimethyloxazol-4-yl)methyl)-1H-pyrrolo[2,3-b]pyridine-6-carbonyl)-3,3-dimethylpiperazin-1-yl)-2,4-dimethylnicotinic acid] reads 0.02 to 10 µM; that for `Cc1cc(N2CCN(C(=O)c3ccc4c(-c5ccc(Cl)c(F)c5)cn(C5CCOCC5)c4n3)C(C)(C)C2)nc(C)c1C(=O)O` [Example 98], less than 0.02 µM.

By IC50 is commonly meant the concentration needed to halve the response being measured.

These data come from patent US20240066027A1 (DOMAIN THERAPEUTICS, priority 2020, published 2024).
